In patent publication US5843910A, “Colchicine derivatives and the therapeutical use thereof” (Indena S.p.A., priority 1996, dated 1998) one finds IC50 data, which are given here for five compounds.

The test system of one series is Ovary tumoral cell line. Put plainly: In vitro cytotoxic (antimitotic) activity on tumoral cell lines, ovary. Format: cell-based. The text has this:
(§1) Taxol and colchicine are the comparison substances.
(§2) In vitro cytotoxic activity of some novel colchicine derivatives.

Another series has as its system Colon tumoral cell line. Put plainly: In vitro cytotoxic (antimitotic) activity on tumoral cell lines, colon. Format: cell-based.
Text: as §1, §2

The next series has as its system Breast tumoral cell line. Kind of series: In vitro cytotoxic (antimitotic) activity on tumoral cell lines, breast. Format: cell-based.
Text: as §1, §2

A further series has as its system Lung tumoral cell line. Kind of series: In vitro cytotoxic (antimitotic) activity on tumoral cell lines, lung. Format: cell-based.
Text: as §1, §2

In the next series the test system is resistant cell lines. Put plainly: cells. To be noted: read-out: In vitro cytotoxic activity, IC50, Cell. resist.
Text: as §1
Formulations for the parenteral, oral, transdermal, epicutaneous administrations can be conveniently prepared.

As usually defined, the IC50 is the concentration that inhibits the measured activity by half. Regarding `COc1cc2c(c(OC)c1OC)-c1ccc(OC)c(=O)cc1[C@@H](NC(C)=O)CC2` [Colchicine, colchicine], the 50% inhibitory concentration (IC50) in the series with Ovary tumoral cell line was determined as 5.3 nM; in the series with Colon tumoral cell line, 3.9 nM; in the series with Breast tumoral cell line, 4.4 nM; in the series on Lung tumoral cell line, 16 nM; in the series on resistant cell lines, 112 nM.
The corresponding values for `COc1c(OC(C)C)cc2c(c1OC)-c1ccc(SC)c(=O)cc1[C@@H](NC(=O)C(F)(F)F)CC2` [Compound IIZ, N-desacetyl-N-trifluoroacetyl-3-O-demethyl-3-O-isopropyl-thiocolchicine] are 9.4 nM, 1.8 nM, 5 nM, 19 nM and 11 nM.
As for `COc1cc2c(c(OC)c1OC)-c1ccc(SC)c(=O)cc1[C@@H](NC(=O)[C@@H](NC(=O)C(F)(F)F)c1ccccc1)CC2` [Compound IVZ, N-(N-trifluoroacetyl-α-phenylglycyl)-desacetylthiocolchicine], the half-inhibitory concentration (IC50) in the series with Ovary tumoral cell line came out at 6.1 nM; in the series on Colon tumoral cell line, 2.2 nM; in the series on Breast tumoral cell line it was 4.1 nM; in the series with Lung tumoral cell line, 12 nM; in the series with resistant cell lines, 7 nM.
For the compound `COc1c(OC2CCCC2)cc2c(c1OC)-c1ccc(SC)c(=O)cc1[C@@H](NC(=O)C(F)(F)F)CC2` [Compound IZ, N-desacetyl-N-trifluoroacetyl-3-O-demethyl-3-O-cyclopentyl-thiocolchicine], the IC50 was 4.2 nM in the series with Ovary tumoral cell line; 2.6 nM with Colon tumoral cell line; 6.2 nM with Breast tumoral cell line; 8 nM in the series with Lung tumoral cell line; 26 nM in the series on resistant cell lines.
The corresponding values for `CC(=O)O[C@H]1C(=O)[C@@]2(C)[C@H]([C@H](OC(=O)c3ccccc3)[C@]3(O)C[C@H](OC(=O)[C@H](O)[C@@H](NC(=O)c4ccccc4)c4ccccc4)C(C)=C1C3(C)C)[C@]1(OC(C)=O)CO[C@@H]1C[C@@H]2O` [Taxol, reference compound] are 6.1 nM, 3.5 nM, 3.2 nM, 1.7 nM and 299 nM.
